In patent US9730956B2 (priority 2014, dated 2017):

Legend:
T. mentagrophytes = test: NORS antifungal effect on mycelial viability; assay type: cell-based, Trichophyton mentagrophytes; details: 30 minute exposure; 0.14% sodium nitrite (pH 6) or citric acid at pH 3.7 alone
T. rubrum = test: NORS antifungal effect on mycelial viability; assay type: cell-based, Trichophyton rubrum; details: 30 minute exposure; 0.14% sodium nitrite (pH 6) or citric acid at pH 3.7 alone

Row | Structure (SMILES) | effect of single NORS component on mycelial viability (T. mentagrophytes) | effect of single NORS component on mycelial viability (T. rubrum)
1 | O=C(O)CC(O)(CC(=O)O)C(=O)O [citric acid] | Minimal to no effect | Minimal to no effect
2 | O=NO [sodium nitrite] | Minimal to no effect | Minimal to no effect
